Experimental data as given in patent US20040115804A1, “Cell system for generating somatic cells” (priority 2002, published 2004).

Legend:
[1] = tested on: bone marrow stromal cells; conditions: bone marrow stromal cells treated with 5-azacytidine; cited from earlier work
[2] = tested on: umbilical mesenchymal cells; experiment: Cardiac troponin I / F-actin immunocytochemistry after cardiac differentiation; assay type: cell-based, human; conditions: 3 μM 5-azacytidine for 24 hours, then growing medium 1-3 weeks
Procedure: Umbilical mesenchymal cells obtained in Example 1 were cultured in a cell growing medium of DMEM supplemented with about 4.5 g/L of glucose and about 10% FBS. After the cells have attached to the bottom of the cell culture plate, the cell growing medium was then replaced by a cell differentiating medium, which was prepared by supplementing the cell growing medium with 3 μM 5-azacytidine as a cell differentiating factor. Alternatively, the cell differentiating factor may be directly added to the culture.
The umbilical mesenchymal cells were cultured in the cell differentiating medium for 24 hours. The cell differentiating medium was then replaced by the cell growing medium to prevent intoxication of the cells caused by the long exposure to 5-azacytidine. The differentiated cells were further maintained in the cell growing medium for about 1-3 weeks to ensure the viability and optimal differentiation of the cells. The culture medium was replaced with fresh medium every three days. […]
Next, secondary antibodies conjugated to fluorescence or any visible dyes readily detectable by an optical instrument such as a confocal laser scanning microscope, a fluorescence microscope, or an optical microscope, Rhodamine (TRITC)-conjugated AffiniPure Donkey Anti-Goat IgG (supplied by Jackson ImmunoResearch Lab) were added at a 1:100 dilution to bind the host species of the primary antibodies. […]

[3] = unsuitable for use in human bodies; cited from earlier work
[4] = tested on: haematopoietic stem cells of umbilical cord blood; conditions: cultured in 0.001% of β-Mercaptoethanol; cited from earlier work
[5] = tested on: umbilical mesenchymal cells; experiment: Transformation of umbilical mesenchymal cells into neurons with BME (NF and NeuN immunostaining); assay type: cell-based, human; conditions: 2 mM BME, 72 hours
Source text: Neurofilament (NF) is the major cytoskeleton in neurons, which is responsible for adjusting the size, appearance and diameter of dendrites of neurons. Only neurons at the late developmental stage or mature neurons express NF. Immunostaining for NF is utilized to recognize neurons at the late stage.
Neuron-specific nuclear protein (NeuN) is a specific protein existing in the nucleus of neurons in the central nervous system of vertebrates. NeuN binds to DNA in vitro. It is known that NeuN appears earlier than NF during the development of neurons. Therefore, immunostaining for NeuN is utilized to identify neurons at the early stage of transformation.
Umbilical mesenchymal cells obtained in Example 1 were cultured in 10% FBS-DMEM for 72 hours. Two mM BME was added to the culture and the cells continued to be cultured for 72 hours.

BMSCs = conditions: in vitro culture of BMSCs; cited from earlier work

Compound	ultrastructure by electron microscopy [1]	F-actin expression, cell attachment pattern [2]	C-troponin I expression ([2]; compared to untreated cells)	toxicity [3]	transformation of cord blood haematopoietic stem cells [4]	NF expression (immunostaining) [5]	NeuN expression (immunostaining) [5]	cultured BMSCs induced to differentiate into neurons (BMSCs)
Nc1ncn([C@@H]2O[C@H](CO)[C@@H](O)[C@H]2O)c(=O)n1 [cell differentiating factor, 5-azacytidine]	cardiomyocyte-like ultrastructure	specific cell attachment pattern similar to that of the cardiomyocytes or cardiovascular cells	significant expression of C-troponin I	–	–	–	–	–
OCCS [BME, β-mercaptoethanol]	–	–	–	toxic for proteins	transformed into precursors of neural cells	expressed NF	expressed NeuN	about 80%
